Patent US8383683B2, “Pharmaceutical use of substituted amides” (High Point Pharmaceuticals, LLC, priority 2007, dated 2013)

Biological target: 11βHSD1 (Homo sapiens, UniProt P28845)
Assay: 11βHSD1 enzyme assay (SPA, 3H-cortisone to 3H-cortisol)
Format: biochemical
Design: An extract of yeast transformed with h-11βHSD1 (Hutt et al., FEBS Lett., 441, 25 (1998)) was used as the source of enzyme; made in house
Conditions: extract of yeast transformed with h-11βHSD1; 120 nM 3H-cortisone, 4 mM β-NADPH, 60 min at 30° C.
Protocol: Pharmacological Methods 11βHSD1 Enzyme Assay Materials
^3H-cortisone and anti-rabbit Ig coated scintillation proximity assay (SPA) beads were purchased from Amersham Pharmacia Biotech, β-NADPH was from Sigma and rabbit anti-cortisol antibodies were from Fitzgerald. An extract of yeast transformed with h-11βHSD1 (Hutt et al., FEBS Lett., 441, 25 (1998)) was used as the source of enzyme. The test compounds were dissolved in DMSO (10 mM). All dilutions were performed in a buffer containing 50 mM TRIS-HCl (Sigma Chemical Co), 4 mM EDTA (Sigma Chemical Co), 0.1% BSA (Sigma Chemical Co), 0.01% Tween-20 (Sigma Chemical Co) and 0.005% bacitracin (Novo Nordisk NS), pH=7.4. Optiplate 96 wells plates were supplied by Packard. The amount of ^3H-cortisol bound to the SPA beads was measured on TopCount NXT, Packard.
h-11βHSD1, 120 nM ^3H-cortisone, 4 mM β-NADPH, antibody (1:200), serial dilutions of test compound and SPA particles (2 mg/well) were added to the wells. The reaction was initiated by mixing the different components and was allowed to proceed under shaking for 60 min at 30° C. The reaction was stopped be the addition of 10 fold excess of a stopping buffer containing 500 μM carbenoxolone and 1 μM cortisone. Data was analysed using GraphPad Prism software.

Chain of 11βHSD1 (P28845 whole entry): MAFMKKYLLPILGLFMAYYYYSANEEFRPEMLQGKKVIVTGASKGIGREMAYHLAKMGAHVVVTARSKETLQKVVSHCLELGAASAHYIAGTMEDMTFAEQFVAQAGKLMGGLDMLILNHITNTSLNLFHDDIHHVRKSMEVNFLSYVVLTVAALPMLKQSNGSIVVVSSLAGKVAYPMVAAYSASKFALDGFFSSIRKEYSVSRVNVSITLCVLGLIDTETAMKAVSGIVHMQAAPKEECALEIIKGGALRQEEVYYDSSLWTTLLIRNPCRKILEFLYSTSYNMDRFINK

Row | Compound | IC50
1 | O=C(CCCOc1ccc(Cl)cc1Cl)N[C@@]12C[C@@H]3C[C@@H](C[C@@](O)(C3)C1)C2 [Example 1-1, 4-(2,4-Dichloro-phenoxy)-N-((1R,3S,5R,7S)-3-hydroxy-adamantan-1-yl)-butyramide] | 0.027 µM
2 | O=C(CCCOc1ccc(Cl)cc1Cl)NC(c1ccccc1)C1CC1 (stereo not drawn) [Example 1-3, N-(Cyclopropyl-phenyl-methyl)-4-(2,4-dichloro-phenoxy)-butyramide] | 0.405 µM
3 | O=C(CCCOc1ccc(Cl)cc1Cl)N1CCCCC1c1ccccc1Cl (stereo not drawn) [Example 1-4, 1-[2-(2-Chloro-phenyl)-piperidin-1-yl]-4-(2,4-dichloro-phenoxy)-butan-1-one] | 0.296 µM
4 | O=C(CCCOc1ccc(Cl)cc1Cl)N1CCCCC1c1ccccc1 (stereo not drawn) [Example 1-10, 4-(2,4-Dichloro-phenoxy)-1-(2-phenyl-piperidin-1-yl)-butan-1-one] | 0.201 µM
5 | CC1(C)[C@H]2CC[C@@H](CNC(=O)CCCOc3ccc(Cl)cc3Cl)[C@@H]1C2 [Example 1-11, 4-(2,4-Dichloro-phen-oxy)-N-((1S,2R,5S)-6,6-dimethyl-bicyclo[3.1.1]-hept-2-ylmethyl)-butyr-amide] | 0.271 µM
6 | COC(=O)C1CC2CCC(C1)N2C(=O)CCCOc1ccc(Cl)cc1Cl (stereo not drawn) [Example 1-17, 8-[4-(2,4-Dichloro-phenoxy)-butyryl]-8-aza-bicyclo[3.2.1]octane-3-carboxylic acid methyl ester] | 0.007 µM
7 | O=C(CCCOc1ccc(Cl)cc1Cl)NC12CC3CC(C1)CC(C(=O)O)(C3)C2 [Example 1-20, 3-[4-(2,4-Dichloro-phenoxy)-butyrylamino]-adamantane-1-carboxylic acid] | 0.013 µM
8 | O=C(CCCOc1ccc(Cl)cc1Cl)NC1C2CC3CC(C2)C(CO)C1C3 (stereo not drawn) [Example 1-21, 4-(2,4-Dichloro-phenoxy)-N-(4-hydroxy-methyl-adamantan-2-yl)-butyramide] | 0.001 µM
9 | O=C(CCCOc1ccc(Cl)cc1Cl)N1CC2CC3CC1CC(O)(C3)C2 (stereo not drawn) [Example 1-22, 4-(2,4-Dichloro-phenoxy)-1-(1-hydroxy-4-aza-tricyclo-[4.3.1.1{3,8}]undec-4-yl)-butan-1-one] | 0.006 µM
10 | O=C(CCCOc1ccc(Cl)cc1Cl)N1CC2CC(O)C1C2 (stereo not drawn) [Example 1-23, 4-(2,4-Dichloro-phenoxy)-1-(6-hydroxy-2-aza-bicyclo[2.2.1]hept-2-yl)-butan-1-one] | 0.151 µM
11 | O=C(CCCOc1ccc(Cl)cc1Cl)NC1C2CC3CC1CC(O)(C3)C2 (stereo not drawn) [Example 1-27, 4-(2,4-Dichloro-phenoxy)-N-(5-hydroxy-adamantan-2-yl)-butyramide] | 0.004 µM
12 | O=C(CCCOc1ccc(Cl)cc1Cl)NC12CC3CC(CC(CO)(C3)C1)C2 [Example 1-28, 4-(2,4-Dichloro-phenoxy)-N-(3-hydroxy-methyl-adamantan-1-yl)-butyramide] | 0.001 µM
13 | COC(=O)C12CC3CC(CC(NC(=O)CCCOc4ccc(Cl)cc4Cl)(C3)C1)C2 [Example 1-30, 3-[4-(2,4-Dichloro-phenoxy)-butyrylamino]-adamantane-1-carboxylic acid methyl ester] | 0.01 µM
14 | O=C(CCCOc1ccc(Cl)cc1Cl)NC12CC3CC(C1)CC(C(=O)O)(C3)C2 [Example 1-31, 3-[4-(2,4-Dichloro-phenoxy)-butyrylamino]-adamantane-1-carboxylic acid] | 0.011 µM
15 | CCN(C(=O)CCCOc1ccc(Cl)cc1Cl)C1C2CC3CC1CC(O)(C3)C2 (stereo not drawn) [Example 1-33, 4-(2,4-Dichloro-phenoxy)-N-ethyl-N-(5-hydroxy-adamantan-2-yl)-butyramide] | 0.007 µM
16 | CCN(C(=O)CCCOc1ccc(Cl)cc1Cl)C1C2CC3CC1CC(O)(C3)C2 (stereo not drawn) [Example 1-34, 4-(2,4-Dichloro-phenoxy)-N-ethyl-N-(5-hydroxy-adamantan-2-yl)-butyramide] | 0.172 µM
17 | O=C(CCCOc1ccccc1)NC1C2CC3CC1CC(O)(C3)C2 (stereo not drawn) [Example 1-39, N-(5-Hydroxy-adamantan-2-yl)-4-phenoxy-butyramide] | 0.05 µM
18 | CN(C(=O)CCCOc1ccccc1)C1C2CC3CC1CC(O)(C3)C2 (stereo not drawn) [Example 1-42, N-(5-Hydroxy-adamantan-2-yl)-N-methyl-4-phenoxy-butyramide] | 1.34 µM
19 | CN(C(=O)CCCOc1ccccc1)C1C2CC3CC1CC(O)(C3)C2 (stereo not drawn) [Example 1-43, N-(5-Hydroxy-adamantan-2-yl)-N-methyl-4-phenoxy-butyramide] | 0.058 µM
20 | O=C(CCCOc1ccccc1)NC12CC3CC(CC(CO)(C3)C1)C2 [Example 1-45, N-(3-Hydroxymethyl-adamantan-1-yl)-4-phenoxy-butyramide] | 0.009 µM
21 | O=C(CCCOc1ccccc1)N1CC2CC1CC2O (stereo not drawn) [Example 1-46, 1-(5-Hydroxy-2-aza-bicyclo[2.2.1]hept-2-yl)-4-phenoxy-butan-1-one] | 1.51 µM
22 | O=C(CCCOc1ccccc1)N1CC2CCC1C2O (stereo not drawn) [Example 1-48, 1-(7-Hydroxy-2-aza-bicyclo[2.2.1]hept-2-yl)-4-phenoxy-butan-1-one] | 1.08 µM

Now from value to compound:

Row | IC50 | Compound
23 | 0.052 µM | O=C(CCCOc1ccc(Cl)cc1Cl)N1CC2CCC(CC2)C1 [Example 1-15, 1-(3-Aza-bicyclo[3.2.2]-non-3-yl)-4-(2,4-di-chloro-phenoxy)-butan-1-one]
24 | 0.209 µM | O=C(CCCOc1ccc(Cl)cc1Cl)N(C1CC1)C1C2CC3CC1CC(O)(C3)C2 (stereo not drawn) [Example 1-18, N-Cyclopropyl-4-(2,4-dichloro-phenoxy)-N-(5-hydroxy-adamantan-2-yl)-butyramide]
25 | 0.024 µM | O=C(CCCOc1ccc(Cl)cc1Cl)N(C1CC1)C1C2CC3CC1CC(O)(C3)C2 (stereo not drawn) [Example 1-19, N-Cyclopropyl-4-(2,4-dichloro-phenoxy)-N-(5-hydroxy-adamantan-2-yl)-butyramide]
26 | 0.02 µM | O=C(CCCOc1ccc(Cl)cc1Cl)N1CC2CC1CC2O (stereo not drawn) [Example 1-24, 4-(2,4-Dichloro-phenoxy)-1-(5-hydroxy-2-aza-bicyclo[2.2.1]hept-2-yl)-butan-1-one]
27 | 0.185 µM | O=C(CCCOc1ccc(Cl)cc1Cl)N1CC2CC(O)CC1C2 (stereo not drawn) [Example 1-25, 4-(2,4-Dichloro-phenoxy)-1-(3-hydroxy-6-aza-bicyclo[3.2.1]oct-6-yl)-butan-1-one]
28 | 0.021 µM | CN(C(=O)CCCOc1ccc(Cl)cc1Cl)C1CCC(O)CC1 (stereo not drawn) [Example 1-26, 4-(2,4-Dichloro-phenoxy)-N-(4-hydroxy-cyclohexyl)-N-methyl-butyramide]
29 | 0.014 µM | O=C(CCCOc1ccc(Cl)cc1Cl)N1CC2CCC1C2O (stereo not drawn) [Example 1-29, 4-(2,4-Dichloro-phenoxy)-1-(7-hydroxy-2-aza-bicyclo[2.2.1]hept-2-yl)-butan-1-one]
30 | 0.004 µM | CN(C(=O)CCCOc1ccc(Cl)cc1Cl)C1C2CC3CC1CC(O)(C3)C2 (stereo not drawn) [Example 1-32, 4-(2,4-Dichloro-phenoxy)-N-(5-hydroxy-adamantan-2-yl)-N-methyl-butyramide]
31 | 0.252 µM | O=C(CCCOc1ccc(Cl)cc1Cl)N1CC2CCC(C1)C2O (stereo not drawn) [Example 1-35, 4-(2,4-Dichloro-phenoxy)-1-(8-hydroxy-3-aza-bicyclo[3.2.1]oct-3-yl)-butan-1-one]
32 | 0.397 µM | O=C(CCCOc1ccc(Cl)cc1Cl)N1CC2CCC1CC2O (stereo not drawn) [Example 1-36, 4-(2,4-Dichloro-phenoxy)-1-(5-hydroxy-2-aza-bicyclo[2.2.2]oct-2-yl)-butan-1-one]
33 | 1.82 µM | CN(C(=O)CCCOc1ccccc1)C1CCC(O)CC1 (stereo not drawn) [Example 1-37, N-(4-Hydroxy-cyclohexyl)-N-methyl-4-phenoxy-butyramide]
